Molecular target: T1, GSK3β (Homo sapiens, UniProt P49841)
T1 construct: purchased Carna Biosciences
Assay: LANCE Ultra TR-FRET kinase assay: phosphorylation of non-primed ULight-labeled 4E-BP1-derived peptide by GSK3β in the presence of inhibitor
Format: biochemical
Details: GSK3β (Carna Biosciences) 2 nM, ATP 10 μM, ULight-4E-BP1 50 nM, 60 min, DMSO 1%, inhibitor at various concentrations
Procedure: Anti-phosphorylated-4E-BP1 antibody (Thr37/46) labeled with a FRET donor is added and upon irradiation, the proximity of the FRET donor and FRET acceptor produce a signal, shown on the y-axis. The 4E-BP1-derived peptide substrate of SEQ ID No. 7 was used, modified by addition of three amino acids at both the N- and C-termini to facilitate solubilizing the peptide and labeling of the peptide with a FRET acceptor label; and
Anti-phosphorylated-4E-BP1 antibody (Thr37/46) labeled with a FRET donor is added and upon irradiation, the proximity of the FRET donor and FRET acceptor produce a signal, shown on the y-axis The 4E-BP1-derived peptide substrate of SEQ ID No. 7 was used, modified by addition of three amino acids at both the N- and C-termini to facilitate solubilizing the peptide and labeling of the peptide with a FRET acceptor label.
LANCE® Ultra assays are based on time-resolved fluorescence resonance energy transfer (TR-FRET). They use a proprietary europium chelate donor dye, W-1024 (Eu), with ULight®, a small molecular weight acceptor dye with a red fluorescent emission. In kinase assays, the binding of a Eu-labeled anti-phospho-substrate antibody to the phosphorylated ULight-labeled substrate brings donor and acceptor dye molecules into proximity. […]

T1 sequence (P49841 whole entry): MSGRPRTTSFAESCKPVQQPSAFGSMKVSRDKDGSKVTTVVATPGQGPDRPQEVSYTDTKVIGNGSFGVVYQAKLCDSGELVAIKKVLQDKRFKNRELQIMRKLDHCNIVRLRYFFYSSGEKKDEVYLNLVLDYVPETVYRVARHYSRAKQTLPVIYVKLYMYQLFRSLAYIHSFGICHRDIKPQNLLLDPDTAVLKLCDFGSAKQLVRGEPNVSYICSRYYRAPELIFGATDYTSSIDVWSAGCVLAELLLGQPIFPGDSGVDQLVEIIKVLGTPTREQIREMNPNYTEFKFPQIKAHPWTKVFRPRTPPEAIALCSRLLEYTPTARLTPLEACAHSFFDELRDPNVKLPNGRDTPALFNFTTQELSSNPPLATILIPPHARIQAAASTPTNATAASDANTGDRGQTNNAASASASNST

Row | GSK3β activity on a 4E-BP1 GSK3 substrate | SMILES
1 | inhibited | Cn1cc(C2=C(c3ccc(Cl)cc3Cl)C(=O)NC2=O)c2ccccc21 [SB216763]
2 | inhibited | O=C1Cc2c([nH]c3ccc(Br)cc23)-c2ccccc2N1 [kenpaullone]

— patent US8323919B2, “Assay methods for identifying glycogen synthase kinase 3 modulators” (PerkinElmer BioSignal, Inc., priority 2009, dated 2012)
